Measured values: US10695337B2, “Piperidin-4-yl azetidine derivatives as JAK1 inhibitors” (Incyte Corporation, priority 2010, dated 2020)

Columns and labels:
Format in all cases: biochemical
[1] = target: human JAK1 (a.a. 837-1142); test: In vitro JAK kinase assay (HTRF, phosphorylation of a biotinylated peptide), JAK1; details: measured at 1 mM ATP; JAK2 IC50 / JAK1 IC50
Summary of the method: (§1)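 Phosphorylation of a biotinylated peptide by purified His-tagged JAK catalytic domains (insect-cell baculovirus expression) ran 1 hr at room temperature. After stopping with EDTA, Eu-Py20 and SA-APC were bound for 40 minutes and HTRF measured.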

[2] = target: human Jak2 (a.a. 828-1132) (Homo sapiens (Human), UniProt O60674); test: In vitro JAK kinase assay (HTRF, phosphorylation of a biotinylated peptide), JAK2; details: measured at 1 mM ATP
Chain of human Jak2 (a.a. 828-1132) (O60674 828-1132): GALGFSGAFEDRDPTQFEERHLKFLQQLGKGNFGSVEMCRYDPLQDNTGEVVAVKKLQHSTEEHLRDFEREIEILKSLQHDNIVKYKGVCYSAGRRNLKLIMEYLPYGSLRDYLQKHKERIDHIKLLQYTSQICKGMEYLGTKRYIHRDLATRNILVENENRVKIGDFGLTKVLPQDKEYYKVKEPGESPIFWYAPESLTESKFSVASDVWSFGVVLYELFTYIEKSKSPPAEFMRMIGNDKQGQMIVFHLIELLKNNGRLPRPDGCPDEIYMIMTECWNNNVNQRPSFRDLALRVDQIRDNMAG
Procedure: Compounds herein were tested for inhibitory activity of JAK targets according to the following in vitro assay described in Park et al., Analytical Biochemistry 1999, 269, 94-104. The catalytic domains of human JAK1 (a.a. 837-1142), Jak2 (a.a. 828-1132) and Jak3 (a.a. 781-1124) with an N-terminal His tag were expressed using baculovirus in insect cells and purified. The catalytic activity of JAK1, JAK2 or JAK3 was assayed by measuring the phosphorylation of a biotinylated peptide. The phosphorylated peptide was detected by homogenous time resolved fluorescence (HTRF). […] Reactions were carried out at room temperature for 1 hr and then stopped with 20 μL 45 mM EDTA, 300 nM SA-APC, 6 nM Eu-Py20 in assay buffer (Perkin Elmer, Boston, Mass.). Binding to the Europium labeled antibody took place for 40 minutes and HTRF signal was measured on a Fusion plate reader (Perkin Elmer, Boston, Mass.).

[3] = target: human JAK1 (a.a. 837-1142) (Homo sapiens, UniProt P23458); test: In vitro JAK kinase assay (HTRF, phosphorylation of a biotinylated peptide), JAK1; details: measured at 1 mM ATP
Summary of the method: as §1

IC50 Ratio JAK2/JAK1 [1] | IC50 [2] [nM] | IC50 [3] [nM] | Compound
6.5 | – | – | N#CCC1(n2cc(-c3ncnc4[nH]ccc34)cn2)CN(C2CCN(C(=O)OCc3ccccc3)CC2)C1 [Example 389, benzyl 4-{3-(cyanomethyl)-3-[4-(7H-pyrrolo[2,3-d]pyrimidin-4-yl)-1H-pyrazol-1-yl]azetidin-1-yl}piperidine-1-carboxylate]
8.3 | – | – | CC(C)COC(=O)N1CCC(N2CC(CC#N)(n3cc(-c4ncnc5[nH]ccc45)cn3)C2)CC1 [Example 390, isobutyl 4-{3-(cyanomethyl)-3-[4-(7H-pyrrolo[2,3-d]pyrimidin-4-yl)-1H-pyrazol-1-yl]azetidin-1-yl}piperidine-1-carboxylate]
5.6 | – | – | CC1(COC(=O)N2CCC(N3CC(CC#N)(n4cc(-c5ncnc6[nH]ccc56)cn4)C3)CC2)CC1 [Example 392, (1-methylcyclopropyl)methyl 4-{3-(cyanomethyl)-3-[4-(7H-pyrrolo[2,3-d]pyrimidin-4-yl)-1H-pyrazol-1-yl]azetidin-1-yl}piperidine-1-carboxylate]
7.1 | – | – | N#CCC1(n2cc(-c3ncnc4[nH]ccc34)cn2)CN(C2CCN(C(=O)OCc3ccc(F)cc3F)CC2)C1 [Example 393, 2,4-difluorobenzyl 4-{3-(cyanomethyl)-3-[4-(7H-pyrrolo[2,3-d]pyrimidin-4-yl)-1H-pyrazol-1-yl]azetidin-1-yl}piperidine-1-carboxylate]

The remaining lines, values behind:

Compound | IC50 Ratio JAK2/JAK1 [1] | IC50 [2] [nM] | IC50 [3] [nM]
CC1CC(N2CC(CC#N)(n3cc(-c4ncnc5[nH]ccc45)cn3)C2)CCN1C(=O)c1cccc(F)c1 (single isomer, unassigned) [Example 149, {1-[1-(3-fluorobenzoyl)-2-methylpiperidin-4-yl]-3-[4-(7H-pyrrolo[2,3-d]pyrimidin-4-yl)-1H-pyrazol-1-yl]azetidin-3-yl}acetonitrile] | 5.0 | 10 to 50 | –
CC1CC(N2CC(CC#N)(n3cc(-c4ncnc5[nH]ccc45)cn3)C2)CCN1C(=O)c1cccc(F)c1 (single isomer, unassigned) [Example 150, {1-[1-(3-fluorobenzoyl)-2-methylpiperidin-4-yl]-3-[4-(7H-pyrrolo[2,3-d]pyrimidin-4-yl)-1H-pyrazol-1-yl]azetidin-3-yl}acetonitrile] | 7.0 | ≤ 10 | –
CC1CC(N2CC(CC#N)(n3cc(-c4ncnc5[nH]ccc45)cn3)C2)CCN1Cc1ccc(N(C)C)c(C#N)c1F (single isomer, unassigned) [Example 242, 3-[(4-{3-(cyanomethyl)-3-[4-(7H-pyrrolo[2,3-d]pyrimidin-4-yl)-1H-pyrazol-1-yl]azetidin-1-yl}-2-methylpiperidin-1-yl)methyl]-6-(dimethylamino)-2-fluorobenzonitrile] | 8.3 | 10 to 50 | ≤ 5
CC1CC(N2CC(CC#N)(n3cc(-c4ncnc5[nH]ccc45)cn3)C2)CCN1Cc1ccc(N(C)C)c(C#N)c1F (single isomer, unassigned) [Example 243, 3-[(4-{3-(cyanomethyl)-3-[4-(7H-pyrrolo[2,3-d]pyrimidin-4-yl)-1H-pyrazol-1-yl]azetidin-1-yl}-2-methylpiperidin-1-yl)methyl]-6-(dimethylamino)-2-fluorobenzonitrile] | 6.4 | > 100 | 20 to 30
N#CCC1(n2cc(-c3ncnc4[nH]ccc34)cn2)CN(C2CCN(C(=O)c3ccc(-c4cccc5cccnc45)c(F)c3)CC2)C1 [Example 132, {1-[1-(3-fluoro-4-quinolin-8-ylbenzoyl)piperidin-4-yl]-3-[4-(7H-pyrrolo[2,3-d]pyrimidin-4-yl)-1H-pyrazol-1-yl]azetidin-3-yl} acetonitrile] | 5.8 | – | ≤ 5
